The source of these data is US9572877B2 (priority 2010, dated 2017).

For test [1], the system named is mouse BMDC (Bone marrow DCs). The experiment in a line: Maturation of dendritic cells: surface marker expression by flow cytometry, mouse BMDC. The format is cell-based. The conditions noted are these: mouse BMDCs, 1 μg/ml, 37° C., 24 hrs. How it is done:
(§1) Approximately 80 ml of blood from healthy human donors was collected and isolated peripheral blood mononuclear cells (PBMCs) with Ficoll-Paque™ gradient separation method. Monocytes were isolated from PBMCs using anti-CD14 microbeads (MACS system), seeded at […] in a 24-well plate with RPMI medium contained 10% FBS, IL-4 and GM-CSF and cultured to obtain human MDDCs. Bone marrow cells were isolated from male BALB/c mouse and cultured with medium contained IL-4 and GM-CSF for 6 days to obtain BMDCs. Then, at 7 days, CD11c^+ cells were isolated using anti-CD11c-coated magnetic beads.
(§2) Human MDDCs (Monocyte-derived DC cells) and mouse BMDC (Bone marrow DCs) were isolated with the method described above, treated respectively with LPS, MPL and CIA05 with 1 μg/ml of concentration and incubated at 37° C. for 24 hrs. After incubation, CD40, CD80 and CD86 were verified in mouse BMDCs surface, and HLA-DR, CD80 and CD86 were verified in human MDDCs by flow cytometry, respectively. […] Therefore, CIA05 may solve these problems.
In general terms: In flow cytometry, cells or beads pass a laser one at a time.

The test system of test [2] is Human MDDCs (Monocyte-derived DC cells). The experiment in a line: Maturation of dendritic cells: surface marker expression by flow cytometry, human MDDCs. The format is cell-based. The following applies: 1 μg/ml, 37° C., 24 hrs. How it is done:
as §1, §2

In the case of Monophosphoryl lipid A [MPL], in test [1], the “expression of DCs surface marker CD40, CD80 and CD86” value is “expressed with similar distribution”. Moreover, the “expression of MDDCs surface marker HLA-DR, CD80 and CD86” value in test [2] was “limited in human”. Turning to lipopolysaccharide [LPS], the “expression of DCs surface marker CD40, CD80 and CD86” value in test [1] is reported as “expressed with similar distribution”.
